Data from BindingDB's records for doi:10.1016/s0960-894x(00)00248-1 (University of Munich, 2000).
pIC50: −log10 of the molar value.

Target: Beta-lactamase TEM (Escherichia coli, UniProt P62593)
Assay: ChEBML_39213
Method: Beta-Lactamase inhibition activity after 15 min of pre-incubation with the enzyme isolated from Escherichia coli 205 TEM

Sequence of Beta-lactamase TEM (P62593 whole entry): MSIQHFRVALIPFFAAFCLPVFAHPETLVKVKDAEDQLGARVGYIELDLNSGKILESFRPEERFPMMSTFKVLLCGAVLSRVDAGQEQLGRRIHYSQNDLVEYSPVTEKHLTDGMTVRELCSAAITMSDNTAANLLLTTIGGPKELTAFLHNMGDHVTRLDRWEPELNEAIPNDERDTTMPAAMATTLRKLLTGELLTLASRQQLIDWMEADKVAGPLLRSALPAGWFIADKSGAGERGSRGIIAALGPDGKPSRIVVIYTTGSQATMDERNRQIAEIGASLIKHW

In the case of `COC1=C(C(=O)O)N2C(=O)[C@H]([C@@H](C)O)[C@H]2C1` [Potassium; (5R,6S)-6-((R)-1-hydroxy-ethyl)-3-methoxy-7-oxo-1-aza-bicyclo[3.2.0]hept-2-ene-2-carboxylate], the pIC50 was 3.47.
